Results published in ChEMBL document CHEMBL1153834, “Orally administered combined regimens for treatment of Mycobacterium ulcerans infection in mice” (2007).
≈ marks a conversion by molar mass, not a printed value. Calls of active or inactive are those of the source. The rule behind the calls is not given here.

Key:
Mycobacterium ulcerans [1] = assay: Antimycobacterial activity against Mycobacterium ulcerans isolate CU001 infected in BALB/c mouse left hind foot-pad assessed as bacterial load per culture-positive foot-pad at 10 mg/kg, po administered for 5 days per week measured after 8 weeks; assay type: functional
Mycobacterium ulcerans [2] = assay: Antimycobacterial activity against Mycobacterium ulcerans isolate CU001; assay type: functional
Mycobacterium ulcerans [3] = assay: Antimycobacterial activity against Mycobacterium ulcerans isolate CU001 infected in BALB/c mouse left hind foot-pad assessed as bacterial load at 100 mg/kg, po administered for 5 days per week measured after 4 weeks; assay type: functional
Mycobacterium ulcerans [4] = assay: Antimycobacterial activity against Mycobacterium ulcerans isolate CU001 infected in BALB/c mouse left hind foot-pad assessed as bacterial load at 100 mg/kg, po administered for 5 days per week measured after 8 weeks; assay type: functional
Mycobacterium ulcerans [5] = assay: Antimycobacterial activity against Mycobacterium ulcerans isolate CU001 infected in BALB/c mouse left hind foot-pad assessed as bacterial load per culture-positive foot-pad at 100 mg/kg, po administered for 5 days per week measured after 4 weeks; assay type: functional
Mycobacterium ulcerans [6] = assay: Antimycobacterial activity against Mycobacterium ulcerans isolate CU001 infected in BALB/c mouse left hind foot-pad assessed as bacterial load at 10 mg/kg, po administered for 5 days per week measured after 8 weeks; assay type: functional, organism-based; design: dose 10 mg/kg
Mycobacterium ulcerans [7] = assay: Antimycobacterial activity against Mycobacterium ulcerans isolate CU001 infected in BALB/c mouse left hind foot-pad assessed as incidence of bacterial infection at 10 mg/kg, po administered for 5 days per week measured after 8 weeks; assay type: functional, organism-based; design: dose 10 mg/kg
Mycobacterium ulcerans [8] = assay: Antimycobacterial activity against Mycobacterium ulcerans isolate CU001 infected in BALB/c mouse left hind foot-pad assessed as bacterial load per culture-positive foot-pad at 10 mg/kg, po administered for 5 days per week measured after 4 weeks; assay type: functional
Mycobacterium ulcerans [9] = assay: Antimycobacterial activity against Mycobacterium ulcerans isolate CU001 infected in BALB/c mouse left hind foot-pad assessed as bacterial load at 10 mg/kg, po administered for 5 days per week measured after 4 weeks; assay type: functional
Mycobacterium ulcerans [10] = assay: Antimycobacterial activity against Mycobacterium ulcerans isolate CU001 infected in BALB/c mouse left hind foot-pad assessed as incidence of bacterial infection at 100 mg/kg, po administered for 5 days per week measured after 8 weeks; assay type: functional, organism-based; design: dose 100 mg/kg

Structure (SMILES)	log10cfu (Mycobacterium ulcerans [1])	MIC (Mycobacterium ulcerans [2]) [µg/mL]	log10cfu (Mycobacterium ulcerans [3])	log10cfu (Mycobacterium ulcerans [4])	log10cfu (Mycobacterium ulcerans [5])	Activity (Mycobacterium ulcerans [6])	Activity (Mycobacterium ulcerans [7])	log10cfu (Mycobacterium ulcerans [8])	log10cfu (Mycobacterium ulcerans [9])	Activity (Mycobacterium ulcerans [10])
COc1c(N2C[C@@H]3CCCN[C@@H]3C2)c(F)cc2c(=O)c(C(=O)O)cn(C3CC3)c12 [MOXIFLOXACIN]	1.72	0.25 (≈ 0.623 µM)	2.99	1.25	3.23					
CO[C@H]1/C=C/O[C@@]2(C)Oc3c(C)c(O)c4c(O)c(c(/C=N/N5CCN(C)CC5)c(O)c4c3C2=O)NC(=O)/C(C)=C\C=C\[C@H](C)[C@H](O)[C@@H](C)[C@@H](O)[C@@H](C)[C@H](OC(C)=O)[C@@H]1C [RIFAMPIN]		2 (≈ 2.43 µM)				Active	Active	1.52	0.46	
CC[C@H]1OC(=O)[C@H](C)[C@@H](O[C@H]2C[C@@](C)(OC)[C@@H](O)[C@H](C)O2)[C@H](C)[C@@H](O[C@@H]2O[C@H](C)C[C@H](N(C)C)[C@H]2O)[C@](C)(OC)C[C@@H](C)C(=O)[C@H](C)[C@@H](O)[C@]1(C)O [CLARITHROMYCIN]		0.5 (≈ 0.668 µM)	2.53	1.25	3.43					Active
CN[C@@H]1[C@H](O[C@H]2[C@H](O[C@H]3[C@H](O)[C@@H](O)[C@H](N=C(N)N)[C@@H](O)[C@@H]3N=C(N)N)O[C@@H](C)[C@]2(O)C=O)O[C@@H](CO)[C@H](O)[C@H]1O [STREPTOMYCIN]		0.5 (≈ 0.86 µM)								
